Source: patent US8158656B2, “2-indolinone derivatives as multi-target protein kinase inhibitors and histone deacetylase inhibitors” (Shenzhen Chipscreen Biosciences Ltd., priority 2008, dated 2012)
Values belong to the compound of their own block, whether it stands above or below them.

Experiments:
[1] = target: T1, HDAC7 (Homo sapiens, UniProt Q8WUI4); test: Nur77 reporter assay in HeLa cells; assay type: cell-based; details: for EC50: 24 hours; for HDAC7 (Nur77 reporter assay) % Max Resp of CS055 at 3 μM: relative to CS055 at 3 μM
T1 construct: endogenous in cells; host or cells: HeLa
T1 sequence (Q8WUI4 1-952): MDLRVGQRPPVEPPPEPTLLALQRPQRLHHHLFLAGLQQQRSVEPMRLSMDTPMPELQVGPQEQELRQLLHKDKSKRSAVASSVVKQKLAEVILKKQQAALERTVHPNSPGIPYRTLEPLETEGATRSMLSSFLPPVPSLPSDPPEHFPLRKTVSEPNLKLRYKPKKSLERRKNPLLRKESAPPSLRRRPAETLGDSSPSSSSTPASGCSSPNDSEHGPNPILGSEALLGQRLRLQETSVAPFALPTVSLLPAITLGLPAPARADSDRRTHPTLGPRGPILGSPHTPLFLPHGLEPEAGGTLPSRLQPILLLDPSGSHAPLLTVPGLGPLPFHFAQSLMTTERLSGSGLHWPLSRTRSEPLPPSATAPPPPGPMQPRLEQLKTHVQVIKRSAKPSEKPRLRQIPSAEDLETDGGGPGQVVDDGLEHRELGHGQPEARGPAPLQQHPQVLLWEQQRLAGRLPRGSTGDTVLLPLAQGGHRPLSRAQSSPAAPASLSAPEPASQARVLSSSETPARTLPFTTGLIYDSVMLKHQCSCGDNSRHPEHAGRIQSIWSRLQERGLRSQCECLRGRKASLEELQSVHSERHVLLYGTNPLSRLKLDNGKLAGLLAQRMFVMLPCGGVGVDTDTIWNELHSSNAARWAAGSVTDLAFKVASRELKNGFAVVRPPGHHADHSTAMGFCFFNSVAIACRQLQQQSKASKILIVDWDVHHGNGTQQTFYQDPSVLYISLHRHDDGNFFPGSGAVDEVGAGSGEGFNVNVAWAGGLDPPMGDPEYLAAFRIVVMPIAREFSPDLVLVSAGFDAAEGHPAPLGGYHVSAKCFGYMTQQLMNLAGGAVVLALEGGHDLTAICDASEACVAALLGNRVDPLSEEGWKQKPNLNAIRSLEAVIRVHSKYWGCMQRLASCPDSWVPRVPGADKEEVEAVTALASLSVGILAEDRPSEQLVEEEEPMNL
Description: (§1) HDAC subtype selectivity inhibition assay of tested compounds was carried out by several reporter gene assays experiments. Briefly, HeLa cells were seeded in 96-well plates the day before transfection to give a confluence of 50-80%. Cells were transfected with one of reporter gene plasmid containing a promoter sequence or response element upstream of a luciferase gene construct using FuGene6 transfection reagent according to the manufacturer's instruction (Roche). The promoters or response elements including p21-promoter, gdf11-promoter, MEF-binding element (MEF2), Nur77-promoter were fused upstream to the luciferase gene reporter construct. For normalizing the transfection efficiency, a GFP expression plasmid was cotransfected. Cells were allowed to express protein for 24 hours followed by addition of individual compounds or the vehicle (DMSO). 24 hours later the cells were harvested, and the luciferase assay and GFP assay were performed using corresponding assay kits according to the manufacturer's instructions (Promega).

[2] = system: U937; test: Tumor cell proliferation (MTS), U937; assay type: cell-based; details: Homo sapiens, U-937, U937, 72 hours
Description: (§2) Measurement of in vivo cell proliferation:
(§3) Tumor cells were trypsinized and plated into 96-well plates at 3,000 per well and incubated in complete medium with 10% FBS for 24 hours. Compounds were added over a final concentration range of 100 μmol/L to 100 nmol/L in 0.1% DMSO and incubated for 72 hours in complete medium. The effects on proliferation were determined by addition of MTS reagent (Promega) according to the instruction, incubation for 2 hours at 37° C. in CO2 incubator, and record the absorbance at 490 nm using an ELISA plate reader.

[3] = system: Hut-78; test: Tumor cell proliferation (MTS), Hut-78; assay type: cell-based; details: Homo sapiens, HuT78, Hut-78, 72 hours
Description: as §2, §3

[4] = system: Ramos; test: Tumor cell proliferation (MTS), Ramos; assay type: cell-based; details: Homo sapiens, 72 hours
Description: as §2, §3

[5] = system: HeLa; test: Tumor cell proliferation (MTS), HeLa; assay type: cell-based; details: Homo sapiens, 72 hours
Description: as §2, §3

[6] = system: HUVEC cells; test: VEGF ligand-dependent cell proliferation; assay type: cell-based; details: Homo sapiens, VEGF 165 50 ng/ml, 72 hours, MTS
Description: VEGF dependent cell proliferation:
HUVEC cells were plated into 96-well plates at 6,000 per well and incubated with serum-free medium for 2 hours. Compounds and VEGF 165 (50 ng/ml) were added and incubated for 72 hours in serum-free medium. The effects on proliferation were determined by addition of MTS reagent (Promega) according to the instruction, incubation for 2 hours at 37° C. in CO2 incubator, and record the absorbance at 490 nm using an ELISA plate reader.

[7] = system: HL60; test: Tumor cell proliferation (MTS), HL60; assay type: cell-based; details: Homo sapiens, HL-60, HL60, 72 hours
Description: as §2, §3

[8] = system: Class I HDAC; test: P21 reporter assay in HeLa cells; assay type: cell-based, human; details: for EC50: 24 hours; for Class I HDAC (P21 reporter assay) % Max Resp of CS055 at 3 μM: relative to CS055 at 3 μM
Description: as §1

[9] = system: MDA-MB-231; test: Tumor cell proliferation (MTS), MDA-MB-231; assay type: cell-based; details: Homo sapiens, MDA-MB-231, 72 hours
Description: as §2, §3

[10] = system: Jurkat; test: Tumor cell proliferation (MTS), Jurkat; assay type: cell-based; details: Homo sapiens, 72 hours
Description: as §2, §3

Compound: Cc1[nH]c(/C=N/N=C2\C(=O)Nc3ccc(F)cc32)c(C)c1C(=O)NCCCNc1ccc(C(=O)Nc2ccccc2N)cn1 [Example 7, N-(2-aminophenyl)-6-(3-(2-(((5-fluoro-2-oxoindolin-3-ylidene)hydrazono)-methyl)-3,5-dimethyl-1H-pyrrole-4-carboxamido)propylamino)nicotinamide]
HDAC7 (Nur77 reporter assay) % Max Resp of CS055 at 3 μM [1]: 12.4%
GI50 [2]: > 60 µM
GI50 [3]: > 60 µM
GI50 [4]: > 60 µM
GI50 [5]: > 60 µM
GI50 [6]: 387 nM
GI50 [7]: 7.91 µM
Class I HDAC (P21 reporter assay) % Max Resp of CS055 at 3 μM [8]: 6.2%
GI50 [9]: > 60 µM
GI50 [10]: > 60 µM

Compound: Cc1[nH]c(/C=C2\C(=O)Nc3ccc(F)cc32)c(C)c1C(=O)NCCCCNc1ccc(C(=O)Nc2ccccc2N)cn1 [Example 9, (Z)-N-(2-aminophenyl)-6-(4-(2-((5-fluoro-2-oxoindolin-3-ylidene)methyl)-3,5-dimethyl-1H-pyrrole-4-carboxamido)butylamino)nicotinamide]
EC50 [1]: 13.2 µM
HDAC7 (Nur77 reporter assay) % Max Resp of CS055 at 3 μM [1]: 88.7%
GI50 [2]: > 60 µM
GI50 [3]: 1.67 µM
GI50 [4]: > 60 µM
GI50 [5]: > 60 µM
GI50 [6]: 12 nM
GI50 [7]: 1.27 µM
EC50 [8]: 13.4 µM
Class I HDAC (P21 reporter assay) % Max Resp of CS055 at 3 μM [8]: 89.1%
GI50 [9]: > 60 µM
GI50 [10]: > 60 µM

Now from value to compound, other results behind:

EC50 [1]: 2.9 µM
HDAC7 (Nur77 reporter assay) % Max Resp of CS055 at 3 μM [1]: 113.5%
GI50 [2]: > 60 µM
GI50 [3]: 1.77 µM
GI50 [4]: > 60 µM
GI50 [5]: > 60 µM
GI50 [7]: 4.15 µM
EC50 [8]: 2.3 µM
GI50 [9]: > 60 µM
GI50 [10]: > 60 µM
Compound: Cc1[nH]c(/C=C2\C(=O)Nc3ccc(F)cc32)c(C)c1C(=O)NCCNc1ccc(C(=O)Nc2ccccc2N)cn1 [Example 3, (Z)-N-(2-aminophenyl)-6-(2-(2-((5-fluoro-2-oxoindolin-3-ylidene)methyl)-3,5-dimethyl-1H-pyrrole-4-carboxamido)ethylamino)nicotinamide]
GI50 [6]: < 1 nM
Class I HDAC (P21 reporter assay) % Max Resp of CS055 at 3 μM [8]: 131.7%

HDAC7 (Nur77 reporter assay) % Max Resp of CS055 at 3 μM [1]: 3.9%
GI50 [2]: > 60 µM
GI50 [3]: > 60 µM
GI50 [4]: > 60 µM
GI50 [5]: > 60 µM
GI50 [7]: > 60 µM
GI50 [9]: > 60 µM
GI50 [10]: > 60 µM
Compound: Cc1[nH]c(/C=N/N=C2\C(=O)Nc3ccc(F)cc32)c(C)c1C(=O)NCCNc1ccc(C(=O)Nc2ccccc2N)cn1 [Example 4, N-(2-aminophenyl)-6-(2-(2-(((5-fluoro-2-oxoindolin-3-ylidene)hydrazono)-methyl)-3,5-dimethyl-1H-pyrrole-4-carboxamido)ethylamino)nicotinamide]
GI50 [6]: 1 nM
Class I HDAC (P21 reporter assay) % Max Resp of CS055 at 3 μM [8]: 3.3%

EC50 [1]: 2.5 µM
HDAC7 (Nur77 reporter assay) % Max Resp of CS055 at 3 μM [1]: 88.1%
GI50 [2]: > 60 µM
GI50 [3]: > 60 µM
GI50 [4]: > 60 µM
GI50 [5]: > 60 µM
GI50 [7]: > 60 µM
EC50 [8]: 2.5 µM
GI50 [9]: > 60 µM
GI50 [10]: > 60 µM
Compound: Cc1[nH]c(/C=C2\C(=O)Nc3ccc(F)cc32)c(C)c1C(=O)NCCCNc1ccc(C(=O)Nc2ccccc2N)cn1 [Example 6, (Z)-N-(2-aminophenyl)-6-(3-(2-((5-fluoro-2-oxoindolin-3-ylidene)methyl)-3,5-dimethyl-1H-pyrrole-4-carboxamido)propylamino)nicotinamide]
GI50 [6]: 9 nM
Class I HDAC (P21 reporter assay) % Max Resp of CS055 at 3 μM [8]: 74.6%
